Source: paper PMC13366236 (Acta Pharmaceutica Sinica. B, 2025)
“And” between values parts separate entries of the source, which are not always exact repeats. Equal entries are not always repeated.

Columns and labels:
MDA-MB-231 cells [1] = test: Autophagy induction, Western blot and LC3B immunofluorescence; format: cell-based, human; details: MDA-MB-231, 0.5, 1, 2 μmol/L, 24 h
[2] = Pharmacokinetic study in SD rats; format: in vivo
MDA-MB-468 cells = test: Cell viability CCK-8 assay; format: cell-based; details: Homo sapiens
CYP 2C19 = CYP 2C19 (Homo sapiens, UniProt P33261); test: CYP enzyme inhibition; details: CYP 2C19 IC50
CYP 2C19, sequence (P33261 whole entry): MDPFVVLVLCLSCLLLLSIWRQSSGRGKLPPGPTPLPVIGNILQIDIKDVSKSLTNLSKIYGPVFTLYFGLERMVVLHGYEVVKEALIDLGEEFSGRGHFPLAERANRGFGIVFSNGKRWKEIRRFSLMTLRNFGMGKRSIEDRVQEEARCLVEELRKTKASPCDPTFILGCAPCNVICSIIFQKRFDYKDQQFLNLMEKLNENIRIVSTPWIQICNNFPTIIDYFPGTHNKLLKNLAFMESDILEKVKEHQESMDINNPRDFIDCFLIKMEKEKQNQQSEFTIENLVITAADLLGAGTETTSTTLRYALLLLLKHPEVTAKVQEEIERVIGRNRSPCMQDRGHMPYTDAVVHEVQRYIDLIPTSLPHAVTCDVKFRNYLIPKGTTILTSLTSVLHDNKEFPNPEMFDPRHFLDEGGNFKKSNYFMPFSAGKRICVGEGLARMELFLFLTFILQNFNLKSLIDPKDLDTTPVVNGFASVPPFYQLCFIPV

CYP 1A2 = CYP 1A2 (Homo sapiens, UniProt P05177); test: CYP enzyme inhibition
CYP 1A2, sequence (P05177 whole entry): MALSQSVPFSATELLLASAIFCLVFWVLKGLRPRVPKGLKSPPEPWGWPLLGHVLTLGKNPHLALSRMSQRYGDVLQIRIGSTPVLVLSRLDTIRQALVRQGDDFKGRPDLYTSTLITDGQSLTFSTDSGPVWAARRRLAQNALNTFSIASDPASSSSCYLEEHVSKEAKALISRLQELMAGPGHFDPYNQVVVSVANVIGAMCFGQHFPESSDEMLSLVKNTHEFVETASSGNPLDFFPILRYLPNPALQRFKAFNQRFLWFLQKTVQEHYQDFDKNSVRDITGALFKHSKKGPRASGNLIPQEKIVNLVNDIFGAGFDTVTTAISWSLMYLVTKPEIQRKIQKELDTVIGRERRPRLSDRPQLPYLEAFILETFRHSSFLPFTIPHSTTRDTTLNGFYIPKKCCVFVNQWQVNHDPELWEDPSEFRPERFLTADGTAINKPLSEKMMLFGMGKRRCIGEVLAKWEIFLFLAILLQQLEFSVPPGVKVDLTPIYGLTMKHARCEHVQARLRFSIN

CYP 2C9 = CYP 2C9 (Homo sapiens, UniProt P11712); test: CYP enzyme inhibition; details: CYP 2C9 IC50
CYP 2C9, sequence (P11712 whole entry): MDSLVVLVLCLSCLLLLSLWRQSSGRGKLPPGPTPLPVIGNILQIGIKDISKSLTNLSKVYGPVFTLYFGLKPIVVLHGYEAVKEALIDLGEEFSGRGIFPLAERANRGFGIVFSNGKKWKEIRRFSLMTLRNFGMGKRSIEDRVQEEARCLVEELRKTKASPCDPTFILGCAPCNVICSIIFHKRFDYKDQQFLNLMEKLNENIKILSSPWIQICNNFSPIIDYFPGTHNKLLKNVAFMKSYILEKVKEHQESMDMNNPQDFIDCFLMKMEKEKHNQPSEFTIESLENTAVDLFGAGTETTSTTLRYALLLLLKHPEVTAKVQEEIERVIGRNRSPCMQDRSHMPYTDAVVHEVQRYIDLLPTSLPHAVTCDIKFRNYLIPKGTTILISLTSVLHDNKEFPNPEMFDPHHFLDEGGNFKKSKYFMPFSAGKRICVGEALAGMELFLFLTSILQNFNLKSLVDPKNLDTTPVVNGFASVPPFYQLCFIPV

CYP 2D6 = CYP 2D6 (Homo sapiens, UniProt P10635); test: CYP enzyme inhibition; details: CYP 2D6 IC50
CYP 2D6, sequence (P10635 whole entry): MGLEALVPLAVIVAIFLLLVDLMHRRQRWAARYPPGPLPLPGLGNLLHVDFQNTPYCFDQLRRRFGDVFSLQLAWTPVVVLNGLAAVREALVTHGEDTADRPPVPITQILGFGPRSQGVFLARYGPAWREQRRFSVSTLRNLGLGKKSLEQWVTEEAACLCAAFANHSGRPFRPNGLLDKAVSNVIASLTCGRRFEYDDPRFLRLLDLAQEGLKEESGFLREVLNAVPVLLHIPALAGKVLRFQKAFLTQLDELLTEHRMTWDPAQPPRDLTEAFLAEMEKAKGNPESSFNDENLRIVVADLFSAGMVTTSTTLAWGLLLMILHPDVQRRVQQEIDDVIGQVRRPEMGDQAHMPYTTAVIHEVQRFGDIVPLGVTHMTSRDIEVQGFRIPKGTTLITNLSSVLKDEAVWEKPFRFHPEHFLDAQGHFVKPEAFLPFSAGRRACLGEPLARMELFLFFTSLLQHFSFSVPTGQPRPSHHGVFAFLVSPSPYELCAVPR

MDA-MB-436 cells = test: Cell viability CCK-8 assay; format: cell-based; details: Homo sapiens, MDA-MB-436, 48 h, read-out: Antiproliferative IC50 ± SD
PI3Kγ = PI3Kγ (Homo sapiens, UniProt P48736); test: biochemical
PI3Kγ, sequence (P48736 whole entry): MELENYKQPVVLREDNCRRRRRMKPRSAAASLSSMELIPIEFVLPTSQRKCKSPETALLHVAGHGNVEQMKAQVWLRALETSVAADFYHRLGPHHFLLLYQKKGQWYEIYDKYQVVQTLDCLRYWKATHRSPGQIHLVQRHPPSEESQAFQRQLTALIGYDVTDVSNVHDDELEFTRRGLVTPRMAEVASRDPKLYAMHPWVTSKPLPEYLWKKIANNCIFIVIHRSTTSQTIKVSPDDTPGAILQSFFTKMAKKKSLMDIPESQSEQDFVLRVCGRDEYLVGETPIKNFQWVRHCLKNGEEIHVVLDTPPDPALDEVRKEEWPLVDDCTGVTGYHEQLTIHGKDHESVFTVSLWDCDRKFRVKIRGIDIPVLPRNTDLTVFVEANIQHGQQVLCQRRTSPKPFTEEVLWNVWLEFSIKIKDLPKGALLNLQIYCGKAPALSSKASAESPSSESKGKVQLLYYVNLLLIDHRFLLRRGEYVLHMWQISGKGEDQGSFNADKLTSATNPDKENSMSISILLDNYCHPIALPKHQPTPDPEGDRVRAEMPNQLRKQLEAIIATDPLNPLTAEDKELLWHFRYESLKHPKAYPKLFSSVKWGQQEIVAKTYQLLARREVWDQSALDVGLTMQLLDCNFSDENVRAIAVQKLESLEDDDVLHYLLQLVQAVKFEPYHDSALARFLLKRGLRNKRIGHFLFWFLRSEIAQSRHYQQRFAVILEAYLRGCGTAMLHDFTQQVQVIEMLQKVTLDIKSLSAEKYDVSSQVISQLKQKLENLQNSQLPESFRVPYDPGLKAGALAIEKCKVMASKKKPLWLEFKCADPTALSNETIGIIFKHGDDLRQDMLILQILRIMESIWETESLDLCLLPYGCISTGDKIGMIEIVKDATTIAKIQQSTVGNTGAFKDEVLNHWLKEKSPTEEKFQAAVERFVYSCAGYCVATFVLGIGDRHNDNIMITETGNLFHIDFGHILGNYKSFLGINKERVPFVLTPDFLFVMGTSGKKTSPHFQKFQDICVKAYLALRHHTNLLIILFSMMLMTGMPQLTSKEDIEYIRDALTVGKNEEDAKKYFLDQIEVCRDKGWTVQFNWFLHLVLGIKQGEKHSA

CYP 3A4 = CYP 3A4 (Homo sapiens, UniProt P08684); test: CYP enzyme inhibition; details: CYP 3A4 IC50
MDA-MB-231 cells [3] = test: Wound healing; format: cell-based, human; details: MDA-MB-231, 0.25, 0.5, 1.0 μmol/L, concentration-dependent
MDA-MB-231 cells [4] = test: Transwell invasion assay; format: cell-based, human; details: MDA-MB-231, concentration-dependent
PI3Kα = PI3Kα (Homo sapiens, UniProt P42336); test: biochemical
PI3Kα, sequence (P42336 whole entry): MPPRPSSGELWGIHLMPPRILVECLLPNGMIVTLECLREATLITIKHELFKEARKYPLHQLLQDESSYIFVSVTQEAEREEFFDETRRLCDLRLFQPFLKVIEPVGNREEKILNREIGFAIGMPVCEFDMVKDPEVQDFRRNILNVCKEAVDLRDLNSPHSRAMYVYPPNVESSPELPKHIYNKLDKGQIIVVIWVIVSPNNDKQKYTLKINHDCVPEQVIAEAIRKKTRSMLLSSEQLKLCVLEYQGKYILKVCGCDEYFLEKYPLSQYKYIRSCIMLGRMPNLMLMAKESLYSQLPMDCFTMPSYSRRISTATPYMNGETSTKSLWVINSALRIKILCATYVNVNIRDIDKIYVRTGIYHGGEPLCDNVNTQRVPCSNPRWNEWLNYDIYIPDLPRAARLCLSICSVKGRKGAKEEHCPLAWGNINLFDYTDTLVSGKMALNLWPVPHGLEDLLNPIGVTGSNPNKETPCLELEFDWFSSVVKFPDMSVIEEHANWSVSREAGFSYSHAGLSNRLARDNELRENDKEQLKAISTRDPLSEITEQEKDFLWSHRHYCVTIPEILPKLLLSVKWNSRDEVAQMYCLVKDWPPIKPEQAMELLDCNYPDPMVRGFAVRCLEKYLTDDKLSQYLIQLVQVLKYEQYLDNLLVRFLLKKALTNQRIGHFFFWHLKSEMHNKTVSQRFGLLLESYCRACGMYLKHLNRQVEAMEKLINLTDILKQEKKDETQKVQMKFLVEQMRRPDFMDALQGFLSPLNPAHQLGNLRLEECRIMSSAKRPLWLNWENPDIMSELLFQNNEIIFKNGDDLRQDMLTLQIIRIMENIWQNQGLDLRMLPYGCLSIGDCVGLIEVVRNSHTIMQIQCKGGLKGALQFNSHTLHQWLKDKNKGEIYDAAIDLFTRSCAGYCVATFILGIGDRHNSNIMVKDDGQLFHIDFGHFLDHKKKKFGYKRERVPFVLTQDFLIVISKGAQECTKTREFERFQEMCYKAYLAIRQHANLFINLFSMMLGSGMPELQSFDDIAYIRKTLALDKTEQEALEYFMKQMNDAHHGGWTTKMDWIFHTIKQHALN
PI3Kα, sequence (P27986 whole entry partner): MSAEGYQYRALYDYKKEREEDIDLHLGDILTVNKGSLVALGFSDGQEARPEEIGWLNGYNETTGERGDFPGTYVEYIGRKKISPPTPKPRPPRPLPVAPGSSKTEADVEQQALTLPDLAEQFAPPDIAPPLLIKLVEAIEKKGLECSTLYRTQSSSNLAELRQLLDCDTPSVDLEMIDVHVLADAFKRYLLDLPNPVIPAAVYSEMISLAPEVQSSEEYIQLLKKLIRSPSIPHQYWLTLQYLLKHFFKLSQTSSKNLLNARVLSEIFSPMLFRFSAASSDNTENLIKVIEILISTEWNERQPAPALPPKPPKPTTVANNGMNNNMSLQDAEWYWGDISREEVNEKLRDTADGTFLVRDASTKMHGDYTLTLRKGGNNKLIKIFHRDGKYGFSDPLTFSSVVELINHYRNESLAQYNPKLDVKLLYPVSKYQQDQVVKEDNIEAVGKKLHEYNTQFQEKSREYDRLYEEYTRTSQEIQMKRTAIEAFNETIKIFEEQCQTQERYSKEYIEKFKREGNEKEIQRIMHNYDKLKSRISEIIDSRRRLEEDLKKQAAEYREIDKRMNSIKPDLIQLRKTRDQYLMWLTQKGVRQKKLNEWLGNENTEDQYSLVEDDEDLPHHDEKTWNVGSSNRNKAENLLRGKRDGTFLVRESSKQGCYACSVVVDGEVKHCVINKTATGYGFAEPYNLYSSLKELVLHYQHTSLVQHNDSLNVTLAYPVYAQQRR

MCF-7 cells = test: Cell viability CCK-8 assay; format: cell-based; details: Homo sapiens, MCF7, 48 h, read-out: Antiproliferative IC50 ± SD
MDA-MB-231 cells [5] = test: Colony formation assay; format: cell-based, human; details: MDA-MB-231, 0.05, 0.1, 0.5 μmol/L
PI3KC2g(h) = PI3KC2g(h) (Homo sapiens, UniProt O75747); test: Kinase profiling; format: binding; details: 1.0 μmol/L
MDA-MB-231 cells [6] = test: Apoptosis, Annexin V-AF647/7AAD flow cytometry; format: cell-based, human; details: 24 h
[7] = system: panel of 200 human kinases; test: Kinase-specificity profiling; format: binding; details: 1.0 μmol/L
PI3Kδ = PI3Kδ (Homo sapiens, UniProt O00329); test: biochemical
[8] = system: PI3K/Akt/mTOR signaling pathway; test: Western blot of PI3K/Akt/mTOR signaling pathway in MDA-MB-231 cells; format: cell-based, human; details: MDA-MB-231, 0.5, 1, 2 μmol/L, 24 h
MDA-MB-231 cells [9] = test: Cell viability CCK-8 assay; format: cell-based, human; details: for IC50: Homo sapiens, MDA-MB-231, 48 h, read-out: Antiproliferative IC50 ± SD
MDA-MB-231 xenograft = MDA-MB-231 xenograft tumor model; format: in vivo, female BALB/c nude mice; details: i.v., Q3D × 6, Day 15; for TGI: listed as MT-44; for Tumor size: mean ± SEM
HCT-116 cells = test: Cell viability CCK-8 assay; format: cell-based; details: Homo sapiens, HCT-116, 48 h, read-out: Antiproliferative IC50 ± SD
mTOR [10] = biological target: T1, mTOR (Homo sapiens, UniProt P42345); test: mTOR kinase inhibition, Lance Ultra assay; format: biochemical; details: for IC50: mTOR, IC50, mean ± SD of triplicate measurements
mTOR [11] = biological target: T1, mTOR; test: Cellular thermal shift assay; format: cell-based; details: MDA-MB-231 cells, 5 μmol/L, 8 h
PI3Kβ = PI3Kβ (Homo sapiens, UniProt P42338); test: biochemical
[12] = system: cGAS/STING signaling pathway; test: Western blot of cGAS/STING signaling pathway in MDA-MB-231 cells; format: cell-based, human; details: MDA-MB-231, 0.5‒2.0 μmol/L, 24 h
[13] = Sprague-Dawley, rat, plasma, iv, 5 mg/kg
[14] = Sprague-Dawley, rat, plasma, po, 20 mg/kg

COc1ccc2oc(-c3ccc4nc(N)oc4c3)c/c(=N\c3ccccc3NC(=O)CCN)c2c1 [Compound 12j, (E)-3-amino-N-(2-((2-(2-aminobenzo[d]oxazol-6-yl)-6-methoxy-4H-chromen-4-ylidene)amino)phenyl)propanamide]
autophagy induction (MDA-MB-231 cells [1]): significantly enhanced autophagy induction
Cl ([2]; SD rats, i.g. 20 mg/kg): 0.75 ± 0.07 mL/min/kg
Vss ([2]; SD rats, i.g. 20 mg/kg): 15.04 ± 4.24 L/kg
AUC(0-inf) [2, 13]: 29900 ng·h/mL
AUC(0-t) [2, 13]: 28800 ng·h/mL
Cmax [2, 13]: 29200 ng/mL
MRT last [2, 13]: 2.93 ± 0.16 h
Tmax [2, 13]: 0.05 h
Vd [2, 13]: 4.43 ± 0.93 L/kg
clearance [2, 13]: 2.83 mL/min/kg
half-life [2, 13]: 14.1 ± 3.35 h
bioavailability ([2]; Sprague-Dawley, rat, plasma, oral, 20 mg/kg): 4.75%
AUC(0-inf) [2, 14]: 5680 ± 501 ng·h/mL
AUC(0-t) [2, 14]: 5300 ± 514 ng·h/mL
Cmax [2, 14]: 1150 ± 174 ng/mL
MRT last [2, 14]: 5.44 ± 0.2 h
Tmax [2, 14]: 1.4 ± 0.55 h
half-life [2, 14]: 14 ± 4.11 h
IC50 (MDA-MB-468 cells; MDA-MB-468, read-out: Antiproliferative IC50): 148 nM
inhibition at 1 µM (MDA-MB-468 cells; MDA-MB-468, read-out: Inhibition rate @ 1.0 μmol/L): 74%
IC50 (CYP 2C19): > 50000 nM
IC50 (CYP 1A2): > 50000 nM
IC50 (CYP 2C9): > 50000 nM
IC50 (CYP 2D6): 19900 nM
IC50 (MDA-MB-436 cells): 148 ± 1.7 nM
IC50 (PI3Kγ): > 10000 nM
IC50 (CYP 3A4): > 50000 nM
anti-migration effect (MDA-MB-231 cells [3]): significantly inhibit the migration
invasion (MDA-MB-231 cells [4]): significantly inhibit the invasion
IC50 (PI3Kα): > 10000 nM
IC50 (MCF-7 cells): 328 ± 5.4 nM
colony formation ability (MDA-MB-231 cells [5]): significantly inhibited
binding to PI3KC2γ (PI3KC2g(h)): weak binding
percentage of total apoptotic cells (MDA-MB-231 cells [6]; MDA-MB-231, 0.5 μmol/L): 4.73%
percentage of total apoptotic cells (MDA-MB-231 cells [6]; MDA-MB-231, 1 μmol/L): 9.43%
percentage of total apoptotic cells (MDA-MB-231 cells [6]; MDA-MB-231, 2 μmol/L): 22.23%
binding activity to the panel of kinases [7]: no obvious binding activity
IC50 (PI3Kδ): > 10000 nM
expression of p-P70S6K(Thr389), p-Akt(Ser473), p-4EBP1(Thr37/46) [8]: significantly downregulated in a concentration-dependent manner
IC50 (MDA-MB-231 cells [9]): 66.5 ± 1.5 nM
fold more potent antiproliferative effect than Doxorubicin (MDA-MB-231 cells [9]; MDA-MB-231): 1.1 fold
fold more potent antiproliferative effect than Everolimus (MDA-MB-231 cells [9]; MDA-MB-231): 34.4 fold
T/C (MDA-MB-231 xenograft; 10 mg/kg): 61.36%
TGI (MDA-MB-231 xenograft; 10 mg/kg): 38.64% and 38.64 ^d %
Tumor size (MDA-MB-231 xenograft; 10 mg/kg): 210.95 ± 33.18 mm^3
T/C (MDA-MB-231 xenograft; 20 mg/kg): 27.27%
TGI (MDA-MB-231 xenograft; 20 mg/kg): 72.73% and 72.73 ^e %
Tumor size (MDA-MB-231 xenograft; 20 mg/kg): 115.97 ± 20.63 mm^3
IC50 (HCT-116 cells): 555 ± 315 nM
IC50 (mTOR [10]): 49.4 ± 17.1 nM
target engagement of mTOR in CETSA (mTOR [11]): directly interacts with mTOR protein
IC50 (PI3Kβ): > 10000 nM
phosphorylation of STING(Ser366), TBK(Ser172), IRF3(Ser366) [12]: concentration-dependent increase

NCCC(=O)Nc1ccccc1/N=c1\cc(-c2ccc3nc(N)oc3c2)oc2ccccc12 [Compound 12a, (E)-3-amino-N-(2-((2-(2-aminobenzo[d]oxazol-6-yl)-4H-chromen-4-ylidene)amino)phenyl)propanamide]
IC50 (CYP 2C19): 680 nM
IC50 (CYP 1A2): > 50000 nM
IC50 (CYP 2C9): 140 nM
IC50 (CYP 2D6): 5520 nM
IC50 (MDA-MB-436 cells): 498 ± 18.1 nM
IC50 (PI3Kγ): > 10000 nM
IC50 (CYP 3A4): 7860 nM
IC50 (PI3Kα): > 10000 nM
IC50 (MCF-7 cells): 118 ± 63.6 nM
IC50 (PI3Kδ): > 10000 nM
IC50 (MDA-MB-231 cells [9]): 337 ± 12.8 nM
IC50 (HCT-116 cells): 1510 ± 361 nM
IC50 (mTOR [10]): 45.2 ± 8.8 nM
fold more potent than the lead compound MT-1 (mTOR IC50) (mTOR [10]; vs MT-1): 34 fold
IC50 (PI3Kβ): > 10000 nM
